We go through 19 compounds from patent US20240116897A1, “BENZOTHIAZOLE AND BENZIMIDAZOLE DERIVATIVES, PHARMACEUTICALLY ACCEPTABLE SALT THEREOF, PREPARATION METHOD THEREFOR, AND PHARMACEUTICAL COMPOSITION COMPRISING SAME AS ACTIVE INGREDIENT” (KOREA RESEARCH INSTITUTE OF CHEMICAL TECHNOLOGY, priority 2021, published 2024).

Like-named read-outs stand apart in the source and are kept apart here.

Data set [1] concerns WI38 cells. The settings on record: human, 48 h.
Method: (§3) LDH released is measured to determine whether a compound is toxic.
(§4) Thermo's Cat. No. 88953 LDH Cytotoxicity assay kit was used. 20,000 cells were seeded in a 96 well plate and treated with 100 μM and 500 μM compounds after 24 hours of culture. After 48 hours, transfer 50 μL of the compound-treated culture supernatant to a new 96-well plate, add 50 μL of substrate mix buffer provided in the kit, block light, and react at room temperature for 30 minutes. After adding 50 μL of Stop solution, the absorbance was measured at 490 nm using a microplate reader (Molecular Device, spectramax i3).
For data set [2], the system named is COLO32ODM cells. Nature of the data set: LDH cytotoxicity test, cancer cell line. It counts as cell-based, human. The following applies: 48 hours.
Method: as §3, §4
The subject of data set [3] is COLO32ODM tumor xenograft. In words: In vivo mouse tumor xenograft, COLO32ODM. The settings on record: for tumor size compared to the control group: nude mice, 3 weeks. The procedure: (§1) The compounds of the present invention were administered to mouse tumor xenograft to measure tumor suppression in vivo test. BALB/C-nu female 5-week-old mice were introduced. COLO32ODM and SW480 cells, which are human colorectal cancer cells, were isolated from culture flasks using trypsin and prepared at a concentration of 1×10^8 cell/ml. It was mixed with Matrigel (Gibco, Cat. No. A14133-02) at a ratio of 1:1 and injected 100 μL subcutaneously into the dorsal side of 5-week-old mice. After 2 weeks, when the volume of the mouse tumor reached 100 mm^3, oral administration of the compound was started 5 times a week. (Day 0), After that, it was conducted for 3 weeks.
(§2) In the negative control group, 0.1% Carboxylmethyl cellulose and 0.2% tween 80 solution were administered instead of the compound according to the same administration route and administration frequency. 6 mice were used for each experimental group (FIG. 3). The size of the tumor was measured in the long axis (length, L) and the short axis (width, W) once every 3 days, and the tumor volume (mm^3) was calculated as (L×W×W)/2 thereby the average for each group was calculated. Statistical processing was performed using the GraphPad Prism6 program, and a p-value of less than 0.05 was considered significant.
A 5-week-old nude mouse whose thymus was removed and whose T cells were reduced and whose immune system was suppressed was introduced, and human colorectal cancer cell lines, COLO32ODM and SW480, were subcutaneously injected.

Data set [4] concerns the target T1, SIRT7 protein (Homo sapiens, UniProt Q9NRC8).
T1 construct: purchased SignalChem S41-30H
T1 sequence (Q9NRC8 1-400): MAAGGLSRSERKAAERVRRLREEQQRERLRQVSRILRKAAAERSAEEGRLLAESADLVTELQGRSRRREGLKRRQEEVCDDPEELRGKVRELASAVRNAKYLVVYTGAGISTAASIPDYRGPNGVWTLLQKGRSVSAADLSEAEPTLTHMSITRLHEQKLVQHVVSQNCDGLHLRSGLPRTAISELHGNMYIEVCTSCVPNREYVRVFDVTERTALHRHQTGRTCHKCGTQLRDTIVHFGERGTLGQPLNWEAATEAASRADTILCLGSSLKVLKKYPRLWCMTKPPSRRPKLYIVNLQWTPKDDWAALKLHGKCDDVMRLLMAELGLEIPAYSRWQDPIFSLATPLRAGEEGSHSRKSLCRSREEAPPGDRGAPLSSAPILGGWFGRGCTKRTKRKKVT
Nature of the data set: SIRT Glo assay, inhibitory activity against Sirt7. The data set is classed as biochemical. The following applies: 10 μM compound. The method in brief:
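Recombinant SIRT7 (20 ng per well) pre-incubated 30 min with compound in SIRT Glo buffer, then SIRT Glo substrate added for 1 h before luminescence reading. Background-subtracted signal expressed as % inhibition relative to no-compound control.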

Data set [5] has as its system SW480 tumor xenograft. In words: In vivo mouse tumor xenograft, SW480. The following applies: nude mice, oral 10 mpk, 20 mpk, 40 mpk, 3 weeks. The procedure: as §1
as §2, with “Dissolve the compound in 0.1% Carboxylmethyl cellulose (CMC) and 0.2% tween 80 solution at concentrations of 2 mg/ml, 4 mg/ml, and 8 mg/ml, and 100 ul was orally administered to achieve concentrations of 10 mpk, 20 mpk, and 40 mpk. In” for “In”, “Statistical processing was performed using the GraphPad Prism6 program, and a p-value of less than 0.05 was considered significant.” left out

The inhibition is the relative decrease from the control value, in per cent. Low readings indicate a response near the control, high ones a response far below the control. On to `CCNC(=O)N1CCN(Cc2ccc(C(=O)Nc3nc4ccccc4s3)cc2)CC1` [Compound 1-37, 4-(4-(benzo[d]thiazol-2-ylcarbamoyl)benzyl)-N-ethylpiperazine-1-carboxamide], for which the “cytotoxicity (LDH release) compared to the positive control that damaged all cell membranes” value in data set [1] (100 μM) is on record as 29.9%; in data set [1] (500 μM) it was 41.6%; in data set [2] (100 μM) it was 62.1%; in data set [2] (500 μM), 62.0%. Besides, the “tumor size compared to the control group” value is recorded as “reduced” in data set [3] (oral 10 mpk, 20 mpk, 40 mpk) and “reduced” in data set [5]. The “dose dependence of tumor formation inhibitory effect” value in data set [3] (oral 10, 20, 40 mpk) was “concentration-dependent tumor formation inhibitory effect”. Further, the “tumor formation inhibitory effect” value in data set [3] (oral 40 mpk) is on record as “most significant tumor formation inhibitory effect”. This compound showed an inhibition at 10 µM in data set [4] of 81%.
In the case of `CCS(=O)(=O)N1CCC(=Cc2ccc(C(=O)Nc3nc4ccccc4s3)c(F)c2)CC1` [Compound 1-91, N-(benzo[d]thiazol-2-yl)-4-((1-(ethylsulfonyl)piperidin-4-ylidene)methyl)-2-fluorobenzamide], in data set [4], the inhibition at 10 µM was determined as 76%.
Consider `O=C(Nc1nc2ccccc2s1)c1ccc(C=C2CCN(C(=O)c3ccccc3)CC2)cc1F` [Compound 1-92, N-(benzo[d]thiazol-2-yl)-4-((1-benzoylpiperidin-4-ylidene)methyl)-2-fluorobenzamide], for which the inhibition at 10 µM in data set [4] turned out to be 97%.
The same measure, in the same setting: as for `O=C(Nc1nc2ccccc2s1)c1ccc(C=C2CCN(C(=O)Nc3ccc(C(F)(F)F)cc3)CC2)cc1F` [Compound 1-93, 4-(4-(benzo[d]thiazol-2-ylcarbamoyl)-3-fluorobenzylidene)-N-(4-(trifluoromethyl)phenyl)piperidine-1-carboxamide], the figure is 70%; as for `CC(C)NC(=O)N1CCC(=Cc2ccc(C(=O)Nc3nc4ccccc4s3)c(F)c2)CC1` [Compound 1-94, 4-(4-(benzo[d]thiazol-2-ylcarbamoyl)-3-fluorobenzylidene)-N-isopropylpiperidine-1-carboxamide], 98%.
`CC(C)(C)OC(=O)N1CCC(=Cc2ccc(C(=O)Nc3nc4ccccc4s3)cc2Cl)CC1` [Compound 1-95, tert-butyl 4-(4-(benzo[d]thiazol-2-ylcarbamoyl)-2-chlorobenzylidene)piperidine-1-carboxylate]: in data set [4], the inhibition at 10 µM was determined as 34%.
On the same count and under the same terms, the result for `O=C(Nc1nc2ccccc2s1)c1ccc(C=C2CCNCC2)c(Cl)c1` [Compound 1-96, N-(benzo[d]thiazol-2-yl)-3-chloro-4-(piperidin-4-ylidenemethyl)benzamide] reads 91%; that for `CCNC(=O)N1CCC(=Cc2ccc(C(=O)Nc3nc4ccccc4s3)cc2Cl)CC1` [Compound 1-97, 4-(4-(benzo[d]thiazol-2-ylcarbamoyl)-2-chlorobenzylidene)-N-ethylpiperidine-1-carboxamide], 100%; that for `CC(C)(C)OC(=O)N1CCC(=Cc2cc(F)c(C(=O)Nc3nc4ccccc4s3)c(F)c2)CC1` [Compound 1-98, tert-butyl 4-(4-(benzo[d]thiazol-2-ylcarbamoyl)-3,5-difluorobenzylidene)piperidine-1-carboxylate], 21%.
`O=C(Nc1nc2ccccc2s1)c1c(F)cc(C=C2CCNCC2)cc1F` [Compound 1-99, N-(benzo[d]thiazol-2-yl)-2,6-difluoro-4-(piperidin-4-ylidenemethyl)benzamide] had an inhibition at 10 µM in data set [4] of 63%.
In turn, `CCNC(=O)N1CCC(=Cc2cc(F)c(C(=O)Nc3nc4ccccc4s3)c(F)c2)CC1` [Compound 1-100, 4-(4-(benzo[d]thiazol-2-ylcarbamoyl)-3,5-difluorobenzylidene)-N-ethylpiperidine-1-carboxamide] showed an inhibition at 10 µM in data set [4] of 96%.
For `O=C(Nc1nc2ccccc2s1)c1c(F)cc(C=C2CCN(C(=O)Nc3ccccc3)CC2)cc1F` [Compound 1-101, 4-(4-(benzo[d]thiazol-2-ylcarbamoyl)-3,5-difluorobenzylidene)-N-phenylpiperidine-1-carboxamide], at 10 µM the inhibition in data set [4] was 100%.
In data set [4], `O=C(Nc1nc2ccccc2s1)c1c(F)cc(C=C2CCN(C(=O)Nc3ccc(C(F)(F)F)cc3)CC2)cc1F` [Compound 1-102, 4-(4-(benzo[d]thiazol-2-ylcarbamoyl)-3,5-difluorobenzylidene)-N-(4-(trifluoromethyl)phenyl)piperidine-1-carboxamide] returned an inhibition at 10 µM of 37%.
With `CC(C)(C)OC(=O)N1CCC(=Cc2ccc(C(=O)Nc3nc4ccccc4s3)c(Cl)c2)CC1` [Compound 1-103, tert-butyl 4-(4-(benzo[d]thiazol-2-ylcarbamoyl)-3-chlorobenzylidene)piperidine-1-carboxylate], the inhibition at 10 µM in data set [4] was determined as 44%.
The same measure, in the same setting: as for `O=C(Nc1nc2ccccc2s1)c1ccc(C=C2CCNCC2)cc1Cl` [Compound 1-104, N-(benzo[d]thiazol-2-yl)-2-chloro-4-(piperidin-4-ylidenemethyl)benzamide], the figure is 92%.
As for `CCNC(=O)N1CCC(=Cc2ccc(C(=O)Nc3nc4ccccc4s3)c(Cl)c2)CC1` [Compound 1-105, 4-(4-(benzo[d]thiazol-2-ylcarbamoyl)-3-chlorobenzylidene)-N-ethylpiperidine-1-carboxamide], in data set [3], the “tumor size compared to the control group” value was “reduced”. For the same compound, testing at 10 µM in data set [4] gave an inhibition of 100%.
Regarding `O=C(Nc1nc2ccccc2s1)c1ccc(C=C2CCN(C(=O)Nc3ccccc3)CC2)cc1Cl` [Compound 1-106, 4-(4-(benzo[d]thiazol-2-ylcarbamoyl)-3-chlorobenzylidene)-N-phenylpiperidine-1-carboxamide], the “tumor size compared to the control group” value in data set [3] is recorded as “reduced”. In addition, in data set [4], testing at 10 µM gave an inhibition of 99%.
For the compound `O=C(Nc1nc2ccccc2s1)c1ccc(C=C2CCN(C(=O)Nc3ccc(C(F)(F)F)cc3)CC2)cc1Cl` [Compound 1-107, 4-(4-(benzo[d]thiazol-2-ylcarbamoyl)-3-chlorobenzylidene)-N-(4-(trifluoromethyl)phenyl)piperidine-1-carboxamide], the inhibition at 10 µM in data set [4] amounted to 34%.
Same read-out and setting: as for `O=C(Nc1nc2ccccc2s1)c1ccc(C=C2CCN(C(=O)Nc3ccc(F)cc3)CC2)cc1Cl` [Compound 1-108, 4-(4-(benzo[d]thiazol-2-ylcarbamoyl)-3-chlorobenzylidene)-N-(4-fluorophenyl)piperidine-1-carboxamide], the figure is 100%.
